Test results taken from patent US6469146B1, “Radiopharmaceutical products suitable for the selective labeling of lymphocytes, and their preparation” (Cis Bio International, priority 2000, dated 2002).

What was measured:
leukocytes = conditions: in the presence of blood cells (erythrocytes, leukocytes, platelets); documents [3], [4], [6]; cited from earlier work
human blood = test: Labeling of blood cells: yield of cell labeling in whole blood; format: cell-based; conditions: 2 mCi (74 MBq) in 3 mL fresh human blood, 10 minutes, after washings
Procedure: (§1) The radiopharmaceuticals of table I (2 mCi; 74 MBq) are incubated in 3 mL of a fresh sample of human blood for 10 minutes under slow shaking. The blood composition depends upon each sample taken from healthy volunteers (average composition: 1.6±0.3.10^10 Red Globules (RG) and 2.2±0.3.10^7 White Globules (WG) with 1.2±0.3.10^7 Polymorphs (57±9%) and 0.7±0.3.10^7 Lymphocytes (35±4%)]. Non-bound radioactivity is removed by successive washings (2×10 mL of RPMI culture medium 1640) of 10 minutes at 600 g. The yield of cell labeling is determined in a CAPINTEC CRC 120 activimeter. Cell viability is controlled by the Trypan blue exclusion test.
(§2) The results obtained, namely the labeling yield (Yield) and the percentages of activity in the separated fractions are given in tables 3 to 5.

whole blood = test: Cell separation on whole blood (Polymorphprep gradient), activity in separated fractions; format: cell-based, human; parameters: tested at 2 mCi (74 MBq) in 3 mL blood; conditions: for Cell separation on whole blood (activity %): Polymorphprep: fraction: Polymorphprep gradient; for Cell separation on whole blood (activity %): Erythrocytes: fraction: erythrocytes; for Cell separation on whole blood (activity %): Leukocytes: fraction: leukocytes; for Cell separation on whole blood (activity %): Medium: fraction: medium
Procedure: as §1, §2
In a first experiment, a separation of the blood constituents is made on a double density Polymorphprep® gradient.
Whole blood from healthy volunteers is labeled with 2 mCi of [^99mTc(ArCS3)2(ArCS2)] following the method described above. The blood constituents are then separated by the Polymorphprep® double density gradient into two separate fractions: lymphocytes and polymorphs/erythrocytes. The whole blood, diluted in 2-3 mL RPMI, is initially delicately placed on the Polymorphprep® gradient and then centrifuged (300 g, 20 min, 37° C.). […] Counting is made on each fraction using a MAXM Y07 00 367 counter in order to confirm cell constitution.

Row | Compound | blood cell selectivity of labeling (leukocytes) | Yield (±3%) of cell labeling (human blood) [%] | Cell separation on whole blood (activity %): Polymorphprep (whole blood) [%] | Cell separation on whole blood (activity %): Erythrocytes (whole blood) [%] | Cell separation on whole blood (activity %): Leukocytes (whole blood) [%] | Cell separation on whole blood (activity %): Medium (whole blood) [%]
1 | [^99mTCN(CH3)(CH2)8CS2)2] | selectivity for lymphocytes |  |  |  |  | 
2 | CCON(CC)C(=S)[S][99Tc](#[N])[S]C(=S)N(CC)OCC [[^99mTcN(NOET)2], nitrurobis(N-ethoxy-N-ethyldithiocarbamato)technetium-99m] | leukocyte labeling, of granulocytes in particular |  |  |  |  | 
3 | Cc1ccc(C(=S)S[S][99Tc]([S]SC(=S)c2ccc(C)cc2)[S]C(=S)c2ccc(C)cc2)cc1 [Example 5, [^99mTc(4-MePhCS3)2(4-MePhCS2)]] |  | 98 | 3 | 17 | 80 | 0
4 | COc1cccc(C(=S)S[S][99Tc]([S]SC(=S)c2cccc(OC)c2)[S]C(=S)c2cccc(OC)c2)c1 [Example 16, [^99mTc(3-MeOPhCS3)2(3-MeOPhCS2)]] |  | 98 | 2 | 16 | 79 | 3
5 | CCOc1ccc(C(=S)S[S][99Tc]([S]SC(=S)c2ccc(OCC)cc2)[S]C(=S)c2ccc(OCC)cc2)cc1 [Example 14, [^99mTc(4-EtOPhCS3)2(4-EtOPhCS2)]] |  | 97 | 3 | 22 | 75 | 
